{"source": "patent US8148603B2", "about": "“Transgenic ficus, method for producing same and use thereof” (The State of Israel, Ministry of Agriculture & Rural …, priority 2004, dated 2012)", "assay_type_in_all_cases": "in vivo", "key": {"Ficus carica shoots [1]": {"tested_on": "Ficus carica shoots", "experiment": "Root formation of regenerated shoots, rooting in solid medium", "details": "for Root formation (%) ± SE, Rooting in solid medium: scored after 4 weeks", "experimental": "(§1) Two methods for rooting were examined. According to one method, each shoot was cultivated individually in a tube with root induction (RI) medium composed of half concentration MS medium (½MS) supplemented with 100 mg/l myo-inositol, 1 mg/l thiamine-HCl, 90 mg/l phloroglucinol, 2% sucrose (w/v), 0.25% activated charcoal (AC) and 0.8% agar (pH=5.7). The effect of IBA at different concentrations (0, 1, 2 mg/l) was also tested. Each treatment included 32 individual plants. According to another method, well developed shoots (up to 3-4 cm long with 3-4 expanded leaves) were directly transplanted from the proliferation medium to Rooting Cylinders (3.5 cm high×3.0 cm in diameter) with soil mixture comprising 55% granular polypropylene foam, 30% peat and 15% perlite (Tivonchem Ltd, Israel) moistened/soaked/with liquid RI medium without AC, supplemented with either 0, 1, 2 mg/l IBA. Results were scored (0=shoot with no root; 1=rotting shoot) after 4 weeks and based on 32 shoots (8 Magenta boxes with 4 cylinders) per treatment. Each experiment was repeated three times. Plantlets were cultured in closed boxes for one week in a growth chamber and then transferred for one week to a greenhouse. Then the plantlets were further transferred to a high humidity chamber without closures for additional 2 weeks for further acclimatization by decreasing the relative humidity stepwise.\n(§2) Two methods were examined to obtained root induction (Table 1). According to the first approach, each regenerated shoot was placed in a tube containing root induction medium comprising 2 mg/l IBA. Using this method, ca. 80% of the shoots formed roots. However, insufficient percentage of these plants was successfully acclimatized in the greenhouse conditions. According to the second approach, regenerated shoots were cultured directly in rooting cylinders, with or without 1 mg/l IBA. […] These plants had better hardening and growth characteristics and easier further acclimatization in the greenhouse conditions (FIG. 5)."}, "Ficus carica shoots [2]": {"tested_on": "Ficus carica shoots", "experiment": "Root formation of regenerated shoots, rooting in liquid medium", "details": "for Root formation (%) ± SE, Rooting in liquid medium: scored after 4 weeks", "experimental": "as §1, §2"}, "[3]": {"tested_on": "Ficus carica leaf explants and shoots", "experiment": "Tolerance of non-inoculated leaf explants and of shoots to kanamycin", "experimental": "In order to use kanamycin as a selection agent for transformed cells, non-inoculated leaf explants from in vitro fig cultures of both cultivars Brown Turkey and Smyrna were tested for their tolerance to kanamycin. Wounded leaves were placed on a regeneration medium supplemented with kanamycin at a concentration selected from 0, 10, 25, 50, 75 and 100 mg/l. The minimal concentration for inhibition of adventitious shoot induction for cv. Brown Turkey was 25 mg/l. However with cv. […] Therefore, the concentration of 50 mg/l kanamycin was initially chosen for selection in the subsequent transformation experiments.\nLeaf explants of 3-4 weeks old in vitro propagated Ficus carica plants were wounded across the main vein and co-cultivated with the disarmed strain EHA105 harboring the plasmid pME504, comprising the genes GUS-int and npt II. Following co-cultivation with A. tumefaciens, explants were initially placed on regeneration medium supplemented with 50 mg/l kanamycin and 150 mg/l ticarcillin and cultured with their adaxial side up. The leaf explants were exposed for one week to low light intensity and then transferred to normal light. Under the selective conditions of 50 mg/l kanamycin, up to 30% of the explants of Brown Turkey and up to 50% of Smyrna formed green shoots after 4 weeks of culture. […]"}, "[4]": {"tested_on": "Ficus carica leaf explants", "experiment": "Adventitious shoot regeneration from leaf explants", "details": "control explants with TDZ only (0.5-5 mg/l); cv. Brown Turkey", "experimental": "Regeneration experiments were carried out initially with the cultivar Brown Turkey. To examine the effect of culture media on adventitious bud formation, the basal media MS, AP [13] and NN [14]; and various combinations of the auxins IBA and NAA (0.25-2 mg/l), NAA with the cytokinins TDZ (0.5-5 mg/l) and BA (2-5 mg/l) were examined. A control treatment with only TDZ (0.5-5 mg/l) was performed. The regeneration media contained MS basal salt mixture, supplemented with 100 mg/l myo-inositol, 1 mg/l thiamine-HCl, 2-4% sucrose (w/v) and 0.8%, agar (Sigma), at pH 5.7. The effect of the addition of 0.25% activated charcoal (AC) was also examined.\nThe youngest three expanded leaves isolated from 3-4 weeks old plants were used as explants. Each leaf was wounded forming three scares perpendicular to the central vein and placed on regeneration medium with the abaxial or adaxial surface down. Minimum ten Petri dishes, each containing ten explants were used per treatment. The cultures were kept for 7 days in low light intensity (2.5 μmol/m^2 s) followed by exposure to high light intensity (40 μmol/m^2 s) at 25° C., in a 16 hL/8 hD photoperiod. Leaf explants were examined after 28 and 35 days and the percentage of explant producing shoots (regeneration capacity) and the mean of adventitious shoots formed per regenerating explant (regeneration efficacy) were recorded. […]"}, "[5]": {"tested_on": "Ficus carica cv. Brown Turkey plants", "experiment": "Herbicide resistance in control and transgenic Brown Turkey tissue culture", "excerpt": "The pME504 plasmid which comprises the bar gene [Streptomyces hygroscopicus bar gene conferring resistance to herbicide bialaphos (X05822) Thompson, C. J., Movva, N. R., Tizard, R., Crameri, R., Davies, J. E., Lauwereys, M. and Botterman, J. Characterization of the herbicide-resistance gene bar from Streptomyces hygroscopicus EMBO J. 6, 2519-2523 (1987)] was used to transform ‘Brown Turkey’ plants. Herbicide resistance in control and transgenic Brawn Turkey cv. tissue culture line 001 was evaluated."}}}
{"smiles": "O=C(O)CCCc1c[nH]c2ccccc12", "note": "[IBA, indol-3-butyric acid]", "values": [{"measurement": "Root formation (%) ± SE, Rooting in solid medium", "setting": "Ficus carica shoots [1]; IBA 1 mg/l", "result": 100, "unit": "%"}, {"measurement": "Root formation (%) ± SE, Rooting in solid medium", "setting": "Ficus carica shoots [1]; IBA 2 mg/l", "result": "83 ± 6.27", "unit": "%"}, {"measurement": "shoots that formed roots", "setting": "Ficus carica shoots [1]; each shoot in a tube with root induction medium, 2 mg/l IBA", "result": "ca. 80%"}, {"measurement": "Root formation (%) ± SE, Rooting in liquid medium", "setting": "Ficus carica shoots [2]; IBA 1 mg/l", "result": "47 ± 5.43", "unit": "%"}, {"measurement": "Root formation (%) ± SE, Rooting in liquid medium", "setting": "Ficus carica shoots [2]; IBA 2 mg/l", "result": "81.3 ± 7.61", "unit": "%"}, {"measurement": "root formation", "setting": "Ficus carica shoots [2]; shoots directly in rooting cylinders, with or without 1 mg/l IBA, after 4 weeks", "result": 100, "unit": "%"}]}
{"smiles": "NC[C@H]1O[C@H](O[C@H]2[C@H](O)[C@@H](O[C@H]3O[C@H](CO)[C@@H](O)[C@H](N)[C@H]3O)[C@H](N)C[C@@H]2N)[C@H](O)[C@@H](O)[C@@H]1O", "note": "[kanamycin]", "values": [{"measurement": "effect on new emerging transgenic shoots", "setting": "[3]; more than 3 subcultures at 100 mg/l kanamycin on proliferation medium", "result": "inhibition of their growth and development"}, {"measurement": "minimal concentration for inhibition of adventitious shoot induction", "setting": "[3]; non-inoculated leaf explants, cv. Brown Turkey", "result": 25, "unit": "mg/L"}]}
{"smiles": "O=C(Nc1ccccc1)Nc1cnns1", "note": "[TDZ, N-phenyl-N′-1,2,3-thiadiazol-5-yl urea]", "values": [{"measurement": "regeneration frequency", "setting": "[4]", "result": "ca. 2%"}]}
{"smiles": "CP(=O)(O)CC[C@H](N)C(=O)O", "note": "[Basta, phosphinothricin]", "values": [{"measurement": "herbicide effect on non-transformed plants", "setting": "[5]; control Brown Turkey cv., increasing concentrations of PPT (FIG. 11)", "result": "signs of necrosis and chlorosis on basal leaves following two days and died one week later"}, {"measurement": "herbicide effect on resistant (bar transgenic) lines", "setting": "[5]; transgenic Brown Turkey cv. tissue culture line 001, 10 ppm Basta", "result": "propagated in vitro"}]}
